Experimental data from ChEMBL document CHEMBL1201862, “PubChem BioAssay data set” (2004).
Active and inactive are the calls of the source.

Assays:
[1] = target: T1, Coagulation factor XII (Homo sapiens, UniProt P00748); experiment: Factor XIIa Dose Response Confirmation from Single Well HTS. [Related pubchem assays (depositor defined):AID701]; assay type: functional
T1 sequence (P00748 whole entry): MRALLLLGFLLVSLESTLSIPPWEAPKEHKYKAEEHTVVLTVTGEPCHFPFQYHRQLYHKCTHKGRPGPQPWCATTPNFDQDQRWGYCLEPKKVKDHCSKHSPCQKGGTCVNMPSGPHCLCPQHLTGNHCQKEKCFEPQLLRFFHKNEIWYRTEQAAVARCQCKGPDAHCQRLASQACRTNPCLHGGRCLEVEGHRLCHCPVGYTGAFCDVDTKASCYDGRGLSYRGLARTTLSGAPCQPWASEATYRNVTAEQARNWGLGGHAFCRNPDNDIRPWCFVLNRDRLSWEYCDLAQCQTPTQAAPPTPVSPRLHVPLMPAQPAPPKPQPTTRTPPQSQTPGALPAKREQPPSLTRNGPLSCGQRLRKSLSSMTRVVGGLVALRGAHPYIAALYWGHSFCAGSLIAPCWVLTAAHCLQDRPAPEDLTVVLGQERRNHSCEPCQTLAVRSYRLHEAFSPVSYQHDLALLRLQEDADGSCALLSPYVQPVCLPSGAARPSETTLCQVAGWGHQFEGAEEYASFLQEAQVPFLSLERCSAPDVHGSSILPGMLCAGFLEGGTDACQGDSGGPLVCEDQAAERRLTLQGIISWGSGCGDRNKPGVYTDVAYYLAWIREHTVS

[2] = luciferase reporter signal suppression in cells – H4 neuroglioma cells, luminescence, dose response (AID 1990); assay type: functional, cell-based
[3] = test system: Streptococcus sp. 'group A'; experiment: Streptococcus pyogenes SK(-)GAS viability under kanamycin – luminescence, BacTiterGlo, confirmation, counter-screen for streptokinase expression inhibitor project, dose response (AID 1900); assay type: functional, organism-based
[4] = Luminescence Cell-Based Dose Response HTS to Identify Inhibitors of 5'UTR Stem-Loop Driven Prion Protein mRNA Translation in H4 Neuroglioblastoma Cells. [Related pubchem assays: 1827 (Project Summary), 1813 (Primary HTS)]; assay type: functional
[5] = alpha-synuclein stem-loop luciferase translation blockers – H4 neuroglioma cells, luminescence, confirmation (AID 1988); assay type: functional, cell-based
[6] = target: T2, Streptokinase A (Streptococcus pyogenes serotype M1, UniProt P10520); experiment: viability-normalized secreted streptokinase activity reduction – plasminogen activation absorbance, OD405, dose response (AID 1914); assay type: functional, Streptococcus pyogenes M1 GAS;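 note: secreted streptokinase activity via plasminogen activation per viability signal from cell pellet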
T2 sequence (P10520 whole entry): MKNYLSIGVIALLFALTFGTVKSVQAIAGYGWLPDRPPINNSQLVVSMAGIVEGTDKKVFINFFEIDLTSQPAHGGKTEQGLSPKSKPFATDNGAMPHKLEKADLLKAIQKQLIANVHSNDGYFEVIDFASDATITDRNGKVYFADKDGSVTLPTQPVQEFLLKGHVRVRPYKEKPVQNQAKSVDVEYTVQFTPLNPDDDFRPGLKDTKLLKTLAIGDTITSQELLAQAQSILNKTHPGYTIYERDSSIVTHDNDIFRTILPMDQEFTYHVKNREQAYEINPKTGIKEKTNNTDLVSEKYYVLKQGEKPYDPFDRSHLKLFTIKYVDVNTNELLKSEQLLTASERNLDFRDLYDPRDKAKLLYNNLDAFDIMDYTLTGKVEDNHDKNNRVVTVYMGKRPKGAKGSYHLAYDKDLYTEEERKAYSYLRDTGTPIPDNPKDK

[7] = Trypanosoma cruzi growth suppression in host cells – NIH3T3 host cells, beta-gal luminescence, confirmation (AID 2044); assay type: functional, cell-based;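 note: intracellular parasites grown in NIH/3T3 mouse fibroblasts as host cells; luminescent beta-galactosidase reporter signal from transgenic T. cruzi replicating inside host cells; inhibitors lower the luminescence signal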
[8] = microbe, parasite or virus in culture; assay type: functional; conditions: Mycobacterium tuberculosis
[9] = viability of PTEN-deleted HCT116 cells – cell-based, HCT116 PTEN knockout, dose response (AID 1047); assay type: functional;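 note: HCT116 colon tumor cells with PTEN knocked out; cells exposed to compound for 60 hours before readout; potency for loss of cell viability measured by luminescence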
[10] = NIH3T3 cell viability loss – ATP luminescence, mouse fibroblasts, counter-screen, dose response (AID 2010); assay type: functional, cell-based;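 note: cells exposed to compound for about 90 hours before reading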
[11] = viability of HCT116 lacking mutant beta-catenin – cell-based, human colon tumor, dose response (AID 1045); assay type: functional;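 note: HCT116 colon tumor cells with beta catenin knocked out; cells exposed to compound for 60 hours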
[12] = test system: Streptococcus; experiment: GAS UMAA2166 growth inhibition – luminescence, BacTiterGlo, counter-screen for streptokinase expression inhibitor project, dose response (AID 1915); assay type: functional, organism-based;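 note: potency for reduction of bacterial viability or growth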
[13] = target: Glucose-6-phosphate 1-dehydrogenase (Homo sapiens, UniProt P11413); experiment: inhibition of Homo sapiens G6PD, dose series – biochemical, fluorescence, selectivity assay for P. falciparum G6PD inhibitor project, dose response (AID 504792); assay type: functional
Glucose-6-phosphate 1-dehydrogenase, sequence (P11413 whole entry): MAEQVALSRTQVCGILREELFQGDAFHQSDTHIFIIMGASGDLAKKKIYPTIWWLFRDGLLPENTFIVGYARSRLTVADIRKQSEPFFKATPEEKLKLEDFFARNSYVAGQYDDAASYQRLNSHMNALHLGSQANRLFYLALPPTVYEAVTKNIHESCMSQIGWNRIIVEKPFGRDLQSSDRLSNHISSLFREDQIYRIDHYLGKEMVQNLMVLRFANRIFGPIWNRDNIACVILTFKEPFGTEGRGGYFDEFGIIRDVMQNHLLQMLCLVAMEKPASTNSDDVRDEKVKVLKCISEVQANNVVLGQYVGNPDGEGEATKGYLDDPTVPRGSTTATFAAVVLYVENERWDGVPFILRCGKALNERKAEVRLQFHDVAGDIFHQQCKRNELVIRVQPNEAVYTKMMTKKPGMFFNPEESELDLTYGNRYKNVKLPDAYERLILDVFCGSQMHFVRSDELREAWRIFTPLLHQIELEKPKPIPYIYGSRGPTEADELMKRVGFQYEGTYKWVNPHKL

[14] = Intein inhibitors as potential Tuberculosis drugs, a cytotoxicity screen. [Related pubchem assays (depositor defined):AID2221, AID2223, AID434968, AID435010, AID449749, AID449750, AID489010]; assay type: functional
[15] = target: T3, Replicative DNA helicase DnaB (Mycobacterium tuberculosis, UniProt P9WMR3); experiment: DnaB intein splicing inhibitors, dose response, biochemical, cell-free fluorescence (AID 449749); assay type: functional
T3 sequence (P9WMR3 whole entry): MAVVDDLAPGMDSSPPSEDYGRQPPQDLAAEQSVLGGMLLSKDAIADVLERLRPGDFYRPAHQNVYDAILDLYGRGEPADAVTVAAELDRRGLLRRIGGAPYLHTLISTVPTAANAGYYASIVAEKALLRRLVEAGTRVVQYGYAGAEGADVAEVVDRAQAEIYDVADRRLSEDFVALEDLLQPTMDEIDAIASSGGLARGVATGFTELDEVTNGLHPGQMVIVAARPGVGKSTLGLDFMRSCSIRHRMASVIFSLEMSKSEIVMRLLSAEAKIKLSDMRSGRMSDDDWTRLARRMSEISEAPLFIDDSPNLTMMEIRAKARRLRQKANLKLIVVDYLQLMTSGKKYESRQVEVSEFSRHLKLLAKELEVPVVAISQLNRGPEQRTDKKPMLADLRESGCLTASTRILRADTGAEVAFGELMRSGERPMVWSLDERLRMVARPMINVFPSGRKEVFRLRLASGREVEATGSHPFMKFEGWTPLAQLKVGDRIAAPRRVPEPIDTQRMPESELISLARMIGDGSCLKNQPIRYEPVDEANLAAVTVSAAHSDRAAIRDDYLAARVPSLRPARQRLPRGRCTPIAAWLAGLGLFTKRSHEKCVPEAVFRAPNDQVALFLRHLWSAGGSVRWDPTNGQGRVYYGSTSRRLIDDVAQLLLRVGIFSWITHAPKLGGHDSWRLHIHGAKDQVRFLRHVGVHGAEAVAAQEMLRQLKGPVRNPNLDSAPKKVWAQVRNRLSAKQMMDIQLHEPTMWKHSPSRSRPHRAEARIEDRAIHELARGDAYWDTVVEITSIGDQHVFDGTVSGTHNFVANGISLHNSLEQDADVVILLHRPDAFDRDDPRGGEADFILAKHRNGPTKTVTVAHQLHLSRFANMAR

[16] = target: T4, Protein RecA (Mycobacterium tuberculosis, UniProt P9WHJ3); experiment: Fluorescence Cell-Free Homogeneous Dose Retest to Identify Inhibitors of RecA-Intein Splicing Activity. [Related pubchem assays (depositor defined):AID2097, AID2223, AID489010, AID492950]; assay type: functional
T4 sequence (P9WHJ3 whole entry): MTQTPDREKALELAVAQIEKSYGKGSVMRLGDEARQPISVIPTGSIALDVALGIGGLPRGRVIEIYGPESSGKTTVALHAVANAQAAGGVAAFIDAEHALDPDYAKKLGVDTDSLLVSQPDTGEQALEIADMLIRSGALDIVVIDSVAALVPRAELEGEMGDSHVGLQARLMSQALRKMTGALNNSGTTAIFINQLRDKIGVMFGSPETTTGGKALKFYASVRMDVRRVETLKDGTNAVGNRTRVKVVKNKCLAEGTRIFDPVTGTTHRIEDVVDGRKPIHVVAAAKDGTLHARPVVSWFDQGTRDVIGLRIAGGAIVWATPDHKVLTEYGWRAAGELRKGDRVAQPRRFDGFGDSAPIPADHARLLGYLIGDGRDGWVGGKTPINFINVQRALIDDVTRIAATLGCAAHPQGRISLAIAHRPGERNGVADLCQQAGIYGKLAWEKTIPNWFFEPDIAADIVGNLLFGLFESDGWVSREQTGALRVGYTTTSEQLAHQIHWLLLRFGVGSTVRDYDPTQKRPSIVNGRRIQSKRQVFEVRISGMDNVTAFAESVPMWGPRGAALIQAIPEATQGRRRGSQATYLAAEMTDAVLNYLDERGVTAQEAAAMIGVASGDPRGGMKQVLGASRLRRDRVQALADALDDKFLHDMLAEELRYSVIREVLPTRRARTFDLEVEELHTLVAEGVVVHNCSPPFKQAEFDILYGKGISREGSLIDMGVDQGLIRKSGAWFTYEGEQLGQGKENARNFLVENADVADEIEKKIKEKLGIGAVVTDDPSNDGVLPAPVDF

[17] = target: Photoreceptor-specific nuclear receptor (Homo sapiens, UniProt Q9Y5X4); assay type: functional, cell-based;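 note: CHO-S cells with Gal4-NCOR and VP16-NR2E3 two-hybrid luciferase reporter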
Photoreceptor-specific nuclear receptor, sequence (Q9Y5X4 whole entry, the tested form may be a part): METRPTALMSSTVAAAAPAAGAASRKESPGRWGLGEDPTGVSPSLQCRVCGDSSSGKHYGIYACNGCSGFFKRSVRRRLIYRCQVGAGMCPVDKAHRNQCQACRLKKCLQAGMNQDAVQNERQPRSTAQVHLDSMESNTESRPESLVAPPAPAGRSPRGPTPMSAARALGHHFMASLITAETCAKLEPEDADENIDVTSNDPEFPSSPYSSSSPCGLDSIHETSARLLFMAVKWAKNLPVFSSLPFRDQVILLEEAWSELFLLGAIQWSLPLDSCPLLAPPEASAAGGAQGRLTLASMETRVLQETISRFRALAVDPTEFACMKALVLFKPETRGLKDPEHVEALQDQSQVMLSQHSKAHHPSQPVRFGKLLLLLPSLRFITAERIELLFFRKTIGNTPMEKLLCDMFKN

[18] = target: T5, Runt-related transcription factor 1/Core-binding factor subunit beta (Homo sapiens, UniProt Q01196+Q13951); experiment: disruptors of Runt domain/CBFb-SMMHC interaction – biochemical, FRET, Cerulean-Runt, Venus-CBFb-SMMHC, uHTS, […] (AID 1434); assay type: protein assay
T5 sequence (Q01196 whole entry, the tested form may be a part): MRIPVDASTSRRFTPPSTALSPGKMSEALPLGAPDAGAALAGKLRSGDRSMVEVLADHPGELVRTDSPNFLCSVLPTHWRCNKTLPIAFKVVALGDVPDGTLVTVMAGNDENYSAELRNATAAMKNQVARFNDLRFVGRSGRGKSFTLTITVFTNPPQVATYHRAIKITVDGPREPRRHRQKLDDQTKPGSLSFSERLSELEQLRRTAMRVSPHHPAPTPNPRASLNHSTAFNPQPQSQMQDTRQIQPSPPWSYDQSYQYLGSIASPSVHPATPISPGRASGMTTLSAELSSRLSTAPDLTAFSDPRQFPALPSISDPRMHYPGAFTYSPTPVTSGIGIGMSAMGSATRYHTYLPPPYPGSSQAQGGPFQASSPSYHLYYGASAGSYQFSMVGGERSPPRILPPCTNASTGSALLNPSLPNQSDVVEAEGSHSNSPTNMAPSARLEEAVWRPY
T5 sequence (Q13951 whole entry, the tested form may be a part): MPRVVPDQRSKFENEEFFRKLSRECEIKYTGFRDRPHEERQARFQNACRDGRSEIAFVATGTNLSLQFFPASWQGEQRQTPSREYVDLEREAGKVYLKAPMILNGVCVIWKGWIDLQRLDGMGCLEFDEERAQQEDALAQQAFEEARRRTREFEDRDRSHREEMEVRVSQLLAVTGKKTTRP

[19] = target: T5, Runt-related transcription factor 1/Core-binding factor subunit beta; experiment: Runt domain/CBFb-SMMHC interaction disruptors – biochemical, TR-FRET (AID 1438); assay type: protein assay
[20] = target: Intestinal-type alkaline phosphatase (Mus musculus, UniProt P24822); experiment: PubChem AID 488875; assay type: functional
Intestinal-type alkaline phosphatase (Mus musculus, UniProt P24822), sequence (P24822 whole entry): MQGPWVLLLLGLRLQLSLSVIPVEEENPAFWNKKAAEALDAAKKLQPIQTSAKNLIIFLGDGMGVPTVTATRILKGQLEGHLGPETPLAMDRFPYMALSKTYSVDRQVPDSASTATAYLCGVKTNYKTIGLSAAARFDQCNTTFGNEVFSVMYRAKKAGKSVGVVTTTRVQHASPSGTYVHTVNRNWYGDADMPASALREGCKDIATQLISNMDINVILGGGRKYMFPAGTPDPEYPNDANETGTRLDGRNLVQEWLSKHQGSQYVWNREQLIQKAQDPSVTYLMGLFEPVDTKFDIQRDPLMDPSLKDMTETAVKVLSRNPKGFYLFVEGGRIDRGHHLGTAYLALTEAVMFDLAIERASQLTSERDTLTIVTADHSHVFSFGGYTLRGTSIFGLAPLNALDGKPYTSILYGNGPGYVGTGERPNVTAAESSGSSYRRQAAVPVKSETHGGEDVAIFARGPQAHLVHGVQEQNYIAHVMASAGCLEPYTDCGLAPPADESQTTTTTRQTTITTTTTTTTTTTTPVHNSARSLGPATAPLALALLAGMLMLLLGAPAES

[21] = target: T6, Intestinal-type alkaline phosphatase (Homo sapiens, UniProt P09923); experiment: human intestinal alkaline phosphatase activators, dose response, biochemical, luminescence, uHTS hits (AID 463120); assay type: functional
T6 sequence (P09923 whole entry): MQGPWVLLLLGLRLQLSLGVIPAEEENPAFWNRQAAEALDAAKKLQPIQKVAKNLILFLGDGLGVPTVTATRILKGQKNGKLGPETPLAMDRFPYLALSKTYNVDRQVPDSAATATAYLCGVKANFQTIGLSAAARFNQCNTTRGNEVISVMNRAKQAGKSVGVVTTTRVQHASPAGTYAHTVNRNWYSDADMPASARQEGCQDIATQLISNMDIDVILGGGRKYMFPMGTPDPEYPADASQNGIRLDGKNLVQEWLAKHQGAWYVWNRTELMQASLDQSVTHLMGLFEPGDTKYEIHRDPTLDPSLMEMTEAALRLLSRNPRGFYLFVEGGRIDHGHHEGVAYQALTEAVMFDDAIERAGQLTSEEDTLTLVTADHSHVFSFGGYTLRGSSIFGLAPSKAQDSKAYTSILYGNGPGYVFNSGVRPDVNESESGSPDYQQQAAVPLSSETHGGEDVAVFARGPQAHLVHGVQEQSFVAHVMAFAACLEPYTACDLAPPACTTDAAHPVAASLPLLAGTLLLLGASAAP

[22] = target: Alkaline phosphatase, placental type (Homo sapiens, UniProt P05187); experiment: human placental alkaline phosphatase inhibition – biochemical, luminescence, confirmation (AID 1512); assay type: functional
Alkaline phosphatase, placental type, sequence (P05187 whole entry): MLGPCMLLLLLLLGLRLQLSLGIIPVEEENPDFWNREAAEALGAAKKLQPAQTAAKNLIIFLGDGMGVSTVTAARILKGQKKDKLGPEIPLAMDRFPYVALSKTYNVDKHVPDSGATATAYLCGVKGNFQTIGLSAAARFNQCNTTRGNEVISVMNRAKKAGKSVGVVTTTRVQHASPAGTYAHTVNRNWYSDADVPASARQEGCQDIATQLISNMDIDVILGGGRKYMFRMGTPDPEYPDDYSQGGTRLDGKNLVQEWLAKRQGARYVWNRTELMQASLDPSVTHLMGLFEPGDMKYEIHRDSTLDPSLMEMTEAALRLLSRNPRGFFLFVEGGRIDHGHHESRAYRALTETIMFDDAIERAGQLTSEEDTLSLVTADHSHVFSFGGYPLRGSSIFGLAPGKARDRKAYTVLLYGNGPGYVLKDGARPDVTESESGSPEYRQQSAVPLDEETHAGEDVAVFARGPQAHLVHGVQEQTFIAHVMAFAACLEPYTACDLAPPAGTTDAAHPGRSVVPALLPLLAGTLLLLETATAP

[23] = target: T6, Intestinal-type alkaline phosphatase; experiment: activation of human intestinal alkaline phosphatase – biochemical, luminescent, uHTS hits, set 2, dose response (AID 488817); assay type: functional;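 note: potency of activators that raise enzyme activity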
[24] = target: T7, Type-1 angiotensin II receptor (Homo sapiens, UniProt P30556); experiment: agonist activity at AGTR1 – cell-based, uHTS hits, selectivity assay for APJ receptor agonist project, dose response (AID 488865); assay type: functional;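 note: beta-arrestin recruitment to AT1 measured by enzyme fragment complementation luminescence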
T7 sequence (P30556 whole entry): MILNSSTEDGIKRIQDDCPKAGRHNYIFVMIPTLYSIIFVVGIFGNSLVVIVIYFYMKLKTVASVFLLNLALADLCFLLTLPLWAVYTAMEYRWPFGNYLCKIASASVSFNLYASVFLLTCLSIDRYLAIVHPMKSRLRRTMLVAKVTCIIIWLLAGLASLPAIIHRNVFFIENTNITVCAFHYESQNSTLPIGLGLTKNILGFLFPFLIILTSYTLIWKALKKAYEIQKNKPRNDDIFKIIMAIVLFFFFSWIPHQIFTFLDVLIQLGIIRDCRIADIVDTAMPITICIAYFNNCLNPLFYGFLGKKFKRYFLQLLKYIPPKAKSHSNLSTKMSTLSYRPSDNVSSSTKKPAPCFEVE

[25] = target: T8, E3 ubiquitin-protein ligase XIAP (Homo sapiens, UniProt P98170); experiment: Counter Screen using XIAP-Bir3 for Chemical Antagonists of Bir1/2 domains of IAP-family anti-apoptotic proteins. [Related pubchem assays (depositor defined):AID1018, AID1449, AID1514, AID1638, AID1749, AID1750, AID488957, AID488963]
T8 sequence (P98170 whole entry): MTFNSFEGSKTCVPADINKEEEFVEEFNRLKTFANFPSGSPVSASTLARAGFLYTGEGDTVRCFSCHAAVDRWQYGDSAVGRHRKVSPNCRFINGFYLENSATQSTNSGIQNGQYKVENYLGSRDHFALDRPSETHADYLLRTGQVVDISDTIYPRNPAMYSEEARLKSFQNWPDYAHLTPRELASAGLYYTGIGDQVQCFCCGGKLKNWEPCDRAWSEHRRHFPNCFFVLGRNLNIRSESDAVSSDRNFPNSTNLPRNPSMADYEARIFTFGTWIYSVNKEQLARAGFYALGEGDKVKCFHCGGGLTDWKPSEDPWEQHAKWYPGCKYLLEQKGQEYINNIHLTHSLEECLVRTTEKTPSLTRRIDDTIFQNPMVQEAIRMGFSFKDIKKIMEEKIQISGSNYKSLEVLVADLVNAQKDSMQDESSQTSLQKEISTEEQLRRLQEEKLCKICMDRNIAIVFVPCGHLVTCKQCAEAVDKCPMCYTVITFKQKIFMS

[26] = target: T8, E3 ubiquitin-protein ligase XIAP; experiment: small molecules displacing peptide from XIAP – biochemical, IAP family, fluorescence polarization (AID 1018); assay type: functional
[27] = target: Integrin alpha-L (Mus musculus, UniProt P24063); experiment: modulators of CD8 T cell-vesicle binding, dose response, powder samples, mouse 2C CD8+ cells (AID 504565); assay type: functional
Integrin alpha-L, sequence (P24063 whole entry): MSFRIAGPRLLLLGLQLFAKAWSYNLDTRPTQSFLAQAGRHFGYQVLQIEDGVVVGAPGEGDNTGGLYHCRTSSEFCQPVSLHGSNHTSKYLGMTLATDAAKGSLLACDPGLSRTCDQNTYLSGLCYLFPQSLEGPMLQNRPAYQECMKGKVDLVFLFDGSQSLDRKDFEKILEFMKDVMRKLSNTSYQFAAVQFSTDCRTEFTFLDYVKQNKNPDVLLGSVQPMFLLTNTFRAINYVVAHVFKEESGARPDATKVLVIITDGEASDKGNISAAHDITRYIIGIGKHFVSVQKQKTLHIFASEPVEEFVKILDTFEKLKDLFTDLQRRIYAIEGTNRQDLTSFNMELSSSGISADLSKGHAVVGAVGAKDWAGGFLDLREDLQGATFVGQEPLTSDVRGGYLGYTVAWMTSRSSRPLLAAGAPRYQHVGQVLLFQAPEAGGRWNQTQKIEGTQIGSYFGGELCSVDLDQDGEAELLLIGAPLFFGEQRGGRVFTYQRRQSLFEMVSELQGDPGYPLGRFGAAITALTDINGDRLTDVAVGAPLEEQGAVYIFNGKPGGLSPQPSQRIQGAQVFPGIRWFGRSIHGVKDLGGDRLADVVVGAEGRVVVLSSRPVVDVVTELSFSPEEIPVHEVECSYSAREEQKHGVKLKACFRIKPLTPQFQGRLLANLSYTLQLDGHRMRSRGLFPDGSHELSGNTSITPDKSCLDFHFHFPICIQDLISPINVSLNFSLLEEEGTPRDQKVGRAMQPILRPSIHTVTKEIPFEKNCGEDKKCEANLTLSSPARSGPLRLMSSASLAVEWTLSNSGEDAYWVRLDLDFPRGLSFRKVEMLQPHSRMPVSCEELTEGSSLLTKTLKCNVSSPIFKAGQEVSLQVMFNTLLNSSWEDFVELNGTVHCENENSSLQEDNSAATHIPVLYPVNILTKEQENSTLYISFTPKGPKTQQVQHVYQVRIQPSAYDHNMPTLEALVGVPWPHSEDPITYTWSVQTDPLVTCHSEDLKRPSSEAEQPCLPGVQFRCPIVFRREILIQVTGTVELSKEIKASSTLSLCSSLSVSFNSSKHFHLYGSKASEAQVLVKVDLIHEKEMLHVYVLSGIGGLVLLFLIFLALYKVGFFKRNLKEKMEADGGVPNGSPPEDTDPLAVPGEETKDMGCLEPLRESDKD

[28] = test system: T-cell; experiment: loss of vesicle association with mouse CD8+ T cells – mouse 2C CD8+ T cells, flow cytometry, dose response (AID 485284); assay type: functional
[29] = reduction of Shn3 3'UTR-driven luciferase in osteoblasts – cell-based, Clone20 osteoblasts, firefly luciferase, cherry-picked, dose response (AID 624132); assay type: functional;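 note: firefly luciferase luminescence from reporter carrying the Shn3 3'UTR in osteoblasts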
[30] = non-specific 3'UTR reporter inhibition in Clone20-Shn3RL – cell-based, Renilla luciferase, cherry-picked, counter-screen for Shn3 inhibitor project, dose response (AID 624133); assay type: functional

With O=C1N=C(c2ccccc2)S/C1=C\c1cccs1 the IC50 [1] was > 50 µM (inactive).

In the case of COc1ccc(C(=O)c2c(C(F)(F)F)oc3c2C(=O)c2ccccc2C3=O)cc1OC, the EC50 [2] is reported as > 120 µM (not active), the EC50 [3] is reported as 0.514 µM (active) and the EC50 [4] is reported as > 120 µM (not active). For the same compound, the EC50 [5] was 8.35 µM (active), the EC50 [6] was > 150 µM (not active) and the EC50 [7] was 0.884 µM (active). The CC50 [8] was 6.08 µM (active), the EC50 [9] was 2.34 µM (active) and the EC50 [10] was 5.27 µM (active). The EC50 [11] was 2.23 µM (active), the EC50 [12] was 8.91 µM (active) and the IC50 [13] was > 80 µM (inactive). For the same compound, the CC50 [14] was 5.78 µM (active), the AC50 [15] was 4.74 µM (active) and the EC50 [16] was 2.02 µM (active). For the same compound, the IC50 [17] was 1.99 µM (active).

With Cc1cc2n(n1)C(c1ccc(N(C)C)cc1)Nc1ccccc1-2 (stereo not given) the IC50 [18] was 48.3 µM (active) and the IC50 [19] was > 100 µM (inactive).

For Cc1cc(C)cc(OCC(=O)NNC(=O)c2cc(C)n[nH]2)c1, the EC50 [20] was > 100 µM (inactive), the EC50 [21] was 12.7 µM (active) and the IC50 [22] was > 100 µM (inactive). For the same compound, the EC50 [23] was 16.1 µM (active).

For CCN1C(c2ccccc2)=C(c2ccccc2)S/C1=C\C=C1/SC(=S)N(C)C1=O, the EC50 [24] was 7.44 µM (active).

In the case of CC(C)C(NC(=O)CN1C(=O)c2ccccc2S1(=O)=O)C(C)C, the IC50 [25] is reported as > 100 µM (inactive) and the IC50 [26] is reported as > 100 µM (not active).

In the case of COCc1c(C(=O)Nc2cccc(S(=O)(=O)N3CCCCC3)c2)oc2ccccc12, the EC50 [27] is reported as 24.7 µM (inactive), the EC50 [28] is reported as 50.8 µM (inactive) and the AC50 [29] is reported as 9.63 µM (active). The AC50 [30] was 26.4 µM (active).
